Data taken from patent US4734416A, “Pharmaceutically useful carbostyril derivatives” (Otsuka Pharmaceutical Co., Ltd., priority 1978, dated 1988).
Structures can show the parent of a compound that is named as a salt.

What was measured:
[1] = Analgetic activity (acetic acid writhing); assay type: in vivo, mouse (male, ddy-strain); details: Mus musculus, read-out: ED50 (analgetic activity)
Protocol: Male mice of ddy-strain having 15-23 g of body weight are used. One test group consists of 10 mice. The compound to be tested is administered orally by procedures similar to the method mentioned in (II). Fifty minutes after the administration, 0.1 ml of 0.6% acetic acid aqueous solution/10 g body weight is injected intraperitoneally. In case of the mice administered orally with the reference compound (Haloperidol), the injection is made 110 minutes after the administration. The number of writhings shown after 10 minutes is counted for 10 minutes and the ED50 value of respective compounds is calculated in comparison with the number of writhings shown by control group. [Reference: R. Koster, M. Anderson and E. I. Debeer: Fed. Proc., 18, 412, (1959)]

[2] = Halothane anesthesia increasing activity (righting reflex); assay type: in vivo, mouse (male, ddy-strain); details: oral; for Time (minutes) between introduction of anesthesia and waking: 8 mg/kg, 1 hour before 4% Halothane
Protocol: Male mice of ddy-strain having about 20 g body weight are used. One test group consists of 10 mice. An aqueous Gummi Arabicum suspension of test compound (80 mg of a compound to be tested and 1 g of Gummi Arabicum/100 ml of physiological NaCl solution) is administered orally to each mouse at the dosage of 8 mg of test compound/kg body. One hour after the administration, each mouse is placed in a gas respiration chamber (13×13×24 cm) and oxygen gas containing 4% of Halothane [2-bromo-2-chloro-1,1,1-trifluoroethane] is blown into the chamber at the velocity of 2 l/min for 3 minutes. A mouse anaesthetized is taken out from the chamber and the time between the introduction of anesthesia to waking is measured by righting reflex as the index. To mice of the control group, 1% Gummi Arabicum aqueous physiological solution is orally administered at the dosage of 0.1 ml/10 g body. [Reference: M. J. Turnbull and J. W. Watkins: Br. J. Pharmac., 58, 27-35 (1976)]
Same procedures as mentioned in (II)-(A) are employed, except that the amount of test compound to be orally administered is changed in 4 steps at the dosage of 0.5 mg/kg, 1 mg/kg, 2 mg/kg and 4 mg/kg respectively to measure the relationship between the dosage and degree of strength of anesthesia increasing activity.

[3] = in vivo; details: mouse
Protocol: Mice of ddy-strain having 20-22 g of body weight are used. One test group consists of 10 mice.
Oral administration: Compound to be tested is suspended in 1% Gummi Arabicum physiological NaCl aqueous solution.
Intravenuous administration: Compound to be tested is dissolved in 50% propyleneglycol aqueous solution.

[4] = molecular target: T1, enucleated ileum of a guinea pig (Cavia porcellus, UniProt P31389); experiment: Antihistamine activity test in vitro (enucleated guinea pig ileum, histamine retraction, pA2 by Van Rossam method); details: 10^-6 g/ml test compound, 5 minutes before histamine, 36° C.
T1 construct: the tissue of ileum is cut to a length of 2.5 to 3.0 cm and suspended in an organ bath; from tissue; host or cells: isolated ileum from the ileocecal region of male guinea pig
Protocol: As to the test method for determining antihistamine activity of a compound in vitro, a method of using an enucleated ileum of a guinea pig is generally accepted.
A male guinea pig having 300 to 500 g body weight is killed by blood letting. An ileum having a length of 15 cm being enculeated from the ileocecal region is dipped into Tyrode's solution (which is prepared from […], 0.2 g of KCl, 0.2 g of CaCl2, 1.0 g of glucose, 1.0 g of NaHCO3, 0.065 g of NaHPO4.2H2 O and 0.2135 g of MgCl2.6H2 O to make 1000 ml in total volume by adding water). Then the tissue of ileum is cut to a length of 2.5 to 3.0 cm and suspended in an organ bath filled with 30 ml of Tyrode's solution. The organ bath is kept at a temperature of 36° C. and a mixed gas consisting of 5% of CO2 and 95% of O2 is blown into the bath. 10 Minutes after the blowing, 10^-6 M of histamine is added to the bath to examine the sensitivity of the tissue and a reaction curve (control) with respect to the dosage of histamine is obtained. After the dosage of histamine-reaction curve (control) becomes constant, 10^-6 g/ml of a compound to be tested is added to the bath and further histamine is added 5 minutes later to obtain a dosage-reaction curve. Retraction of the ileum is recorded on a pen-recorder through an isotonic transducer [TD-112S manufactured by Nihon Koden]. Antihistamine activity of the test compound is determined as pA2 value by the "Van Rossam" method [J. M. Van Rossam; Arch. Inst. Pharmacodyn., 143, 299 (1963)] wherein the maximum retraction of ileum caused by histamine shown in the control curve is 100%.

[5] = Activity for inhibiting fighting behavior of mouse isolated singly for a long period of time; assay type: in vivo, mouse (male, ddy-strain); details: positive if fighting no longer than 5 seconds in a minute, range in parentheses, read-out: ED50 (inhibition of fighting behavior)
Protocol: Individual male mice of ddy-strain having 15 to 20 g of body weight are breeded separately in respective cages for 1 month. One test group consists of 10 pairs of mice. The pairs of mice are selected so that when one mouse is taken into the home cage of another, the two mice fight together continuously for over 30 seconds. ED50 values are calculated by administering the respective test compounds to each test groups of mice. Activity for inhibiting fighting behavior of the test compound is determined as positive in case the administered mice only continue the fighting for no longer than 5 seconds in a minute. When the mice continue the fighting over 5 seconds they are forced to separate for the purpose of reducing the number of injured mice. [Reference: C. Y. Yen, R. L. Stanger and N. Millman: Arch. Int. Pharmacodyn., 123, 179 (1959)]

[6] = Hexabarbital sleep increasing activity (righting reflex); assay type: in vivo, mouse (male, ddy-strain); details: oral, Hexabarbital Na 70 mg/kg i.p.
Protocol: Male mice of ddy-strain having 20 to 25 g body weight are starved for 24 hours. One test group consists of 10 mice. An aqueous Gummi Arabicum suspension of test compound (0.05 g of test compound and 1 g of Gummi Arabicum/100 ml of physiological NaCl solution) is administered orally at the dosage mentioned in the Table 4. One hour after the administration 0.7% of Hexabarbitol.Na-salt is intraperitonerally administered at the dosage of 70 mg/kg body weight. The time between the introduction of sleep to waking is measured by righting reflex as the index. [Reference: A. M. Hjort, De E. J. Beer and D. W. Fassett; J. Pharmac., Exptl.

[7] = 50 min, oral, 50 minutes before acetic acid i.p., range in parentheses

T1 sequence (P31389 whole entry): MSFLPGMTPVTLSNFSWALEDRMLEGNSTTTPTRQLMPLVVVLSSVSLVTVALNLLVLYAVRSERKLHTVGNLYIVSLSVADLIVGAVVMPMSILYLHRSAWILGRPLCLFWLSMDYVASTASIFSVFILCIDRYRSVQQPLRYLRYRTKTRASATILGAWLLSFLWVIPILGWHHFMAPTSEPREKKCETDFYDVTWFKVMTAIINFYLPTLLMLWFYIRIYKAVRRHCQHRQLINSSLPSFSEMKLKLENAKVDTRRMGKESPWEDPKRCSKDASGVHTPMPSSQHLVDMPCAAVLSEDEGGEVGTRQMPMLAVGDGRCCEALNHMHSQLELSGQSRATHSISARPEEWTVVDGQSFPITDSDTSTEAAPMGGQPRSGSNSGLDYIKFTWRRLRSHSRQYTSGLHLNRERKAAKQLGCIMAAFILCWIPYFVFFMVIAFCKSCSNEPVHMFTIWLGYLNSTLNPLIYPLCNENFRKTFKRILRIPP

O=C1CCc2c(cccc2OCCCN2CCCN(c3ccccc3)CC2)N1 [Compound 31, 5-[3-(4-Phenylhomopiperazinyl)propoxy]-3,4-dihydrocarbostyril]
ED50 [1, 7]: 1.92 mg/kg
Time (minutes) between introduction of anesthesia and waking [2]: 8.2 ± 3.9 min
LD50 ([3]; iv, female mice): 248 mg/kg
LD50 ([3]; iv, male mice): 256 mg/kg
LD50 ([3]; po, female mice): 923 mg/kg
LD50 ([3]; po, male mice): 870 mg/kg
Kb [4]: 0.263 nM

COc1ccccc1N1CCN(CCCOc2ccc3c(c2)NC(=O)CC3)CC1 [Compound 17, 7-{3-[4-(2-Methoxyphenyl)piperazinyl]propoxy}-3,4-dihydrocarbostyril]
ED50 [5]: 0.92 mg/kg
Time (minutes) between introduction of anesthesia and waking [2]: 13.6 ± 5.2 min
LD50 ([3]; iv, female mice): 216 mg/kg
LD50 ([3]; iv, male mice): 218 mg/kg
LD50 ([3]; po, female mice): 860 mg/kg
LD50 ([3]; po, male mice): 898 mg/kg
Kb [4]: 0.871 nM
Sleep time (min.) [Mean ± SD] ([6]; 0.125 mg/kg): 39.51 ± 8.45 min
Sleep time (min.) [Mean ± SD] ([6]; 0.25 mg/kg): 45.57 ± 10.05 min
Sleep time (min.) [Mean ± SD] ([6]; 0.5 mg/kg): 51.77 ± 6.60 min
Sleep time (min.) [Mean ± SD] ([6]; 1.0 mg/kg): 56.92 ± 6.13 min

O=C1CCc2c(cccc2OCCCN2CCN(c3ccccc3)CC2)N1 [Compound 5, 5-[3-(4-Phenylpiperazinyl)propoxy]-3,4-dihydrocarbostyril dihydrochloride]
ED50 [5]: 1.28 mg/kg
Anesthesia increasing activity ([2]; 0.5 mg/kg): 5.2 ± 2.1 min
Anesthesia increasing activity ([2]; 1 mg/kg): 8.5 ± 3.5 min
Anesthesia increasing activity ([2]; 2 mg/kg): 9.6 ± 4.1 min
Anesthesia increasing activity ([2]; 4 mg/kg): 12.7 ± 3.9 min
Time (minutes) between introduction of anesthesia and waking [2]: 16.9 ± 7.9 min
Kb [4]: 1.35 nM

O=c1ccc2ccc(OCCCN3CCN(c4ccccc4)CC3)cc2[nH]1 [Compound 37, 7-[3-(4-Phenylpiperazinyl)propoxy]carbostyril]
ED50 [5]: 0.78 mg/kg
ED50 [1, 7]: 1.52 mg/kg
Time (minutes) between introduction of anesthesia and waking [2]: 13.1 ± 6.0 min
Kb [4]: 0.295 nM

O=C(CCCN1CCC(O)(c2ccc(Cl)cc2)CC1)c1ccc(F)cc1 [Haloperidol, reference compound]
ED50 ([1]; po, 110 min): 2.31 mg/kg
Anesthesia increasing activity ([2]; 0.5 mg/kg): 5.3 ± 2.9 min
Anesthesia increasing activity ([2]; 1 mg/kg): 5.1 ± 2.5 min
Anesthesia increasing activity ([2]; 2 mg/kg): 9.3 ± 3.1 min
Anesthesia increasing activity ([2]; 4 mg/kg): 10.2 ± 3.7 min
Sleep time (min.) [Mean ± SD] ([6]; 4 mg/kg): 43.01 ± 19.22 min
Sleep time (min.) [Mean ± SD] ([6]; 8 mg/kg): 46.83 ± 13.94 min
Sleep time (min.) [Mean ± SD] ([6]; 16 mg/kg): 66.81 ± 14.32 min

O=C1CCc2ccc(OCCCN3CCN(c4cccc(Cl)c4)CC3)cc2N1 [Compound 39, 7-{3-[4-(3-Chlorophenyl)piperazinyl]propoxy}-3,4-dihydrocarbostyril]
ED50 [5]: 0.96 mg/kg
Time (minutes) between introduction of anesthesia and waking [2]: 5.0 ± 2.9 min
LD50 ([3]; iv, female mice): 293 mg/kg
LD50 ([3]; iv, male mice): 310 mg/kg
LD50 ([3]; po, female mice): 1100 mg/kg
LD50 ([3]; po, male mice): 1210 mg/kg
Kb [4]: 0.182 nM

CN1C(=O)CCc2c(OCC(O)CN3CCN(c4ccccc4)CC3)cccc21 (centres unmarked) [Compound 7, 1-Methyl-5-[2-hydroxy-3-(4-phenylpiperazinyl)propoxy]-3,4-dihydrocarbostyril monohydrochloride]
Anesthesia increasing activity ([2]; 0.5 mg/kg): 5.3 ± 2.5 min
Anesthesia increasing activity ([2]; 1 mg/kg): 7.4 ± 3.1 min
Anesthesia increasing activity ([2]; 2 mg/kg): 9.5 ± 3.8 min
Anesthesia increasing activity ([2]; 4 mg/kg): 13.7 ± 4.7 min
Time (minutes) between introduction of anesthesia and waking [2]: 8.9 ± 2.4 min
LD50 ([3]; iv, female mice): 432 mg/kg
LD50 ([3]; iv, male mice): 424 mg/kg
LD50 ([3]; po, female mice): 1650 mg/kg
LD50 ([3]; po, male mice): 1600 mg/kg
Kb [4]: 0.132 nM

CN1C(=O)CCc2c(OCCCN3CCN(c4ccccc4)CC3)cccc21 [Compound 9, 1-Methyl-5-[3-(4-phenylpiperazinyl)propoxy]-3,4-dihydrocarbostyril monohydrochloride]
ED50 [5]: 1.52 mg/kg
Time (minutes) between introduction of anesthesia and waking [2]: 9.5 ± 3.2 min
Kb [4]: 0.0263 nM

O=C1CCc2c(OCC(O)CN3CCN(c4ccccc4)CC3)cccc2N1Cc1ccccc1 (centres unmarked) [Compound 8, 1-Benzyl-5-[2-hydroxy-3-(4-phenylpiperazinyl)propoxy]-3,4-dihydrocarbostyril monohydrochloride]
Time (minutes) between introduction of anesthesia and waking [2]: 7.5 ± 3.3 min
Kb [4]: 0.0158 nM

CN1C(=O)CN=C(c2ccccc2)c2cc(Cl)ccc21 [Diazepam, reference compound]
ED50 [5]: 7.29 mg/kg

CC1CN(CCCOc2ccc3c(c2)NC(=O)CC3)CCN1c1ccc(Cl)cc1 (centres unmarked) [Compound 18, 7-{3-[3-Methyl-4-(4-chlorophenyl)piperazinyl]propoxy}-3,4-dihydrocarbostyril dihydrochloride]
Time (minutes) between introduction of anesthesia and waking [2]: 8.4 ± 2.5 min
Kb [4]: 2.19 nM

O=C1CCc2ccc(OCCCN3CCN(c4ccccc4)CC3)cc2N1Cc1ccccc1 [Compound 12, 1-Benzyl-7-[3-(4-phenylpiperazinyl)propoxy]-3,4-dihydrocarbostyril]
Time (minutes) between introduction of anesthesia and waking [2]: 7.5 ± 3.5 min
Kb [4]: 6.17 nM

CC(COc1ccc2c(c1)NC(=O)CC2)CN1CCN(c2ccccc2)CC1 (centres unmarked) [Compound 25, 7-[2-Methyl-3-(4-phenylpiperazinyl)propoxy]-3,4-dihydrocarbostyril]
Time (minutes) between introduction of anesthesia and waking [2]: 7.8 ± 3.3 min
Kb [4]: 0.617 nM

CC(C)N1C(=O)CCc2ccc(OCCCN3CCN(c4ccccc4)CC3)cc21 [Compound 23, 1-(2-Propyl)-7-[3-(4-phenylpiperazinyl)propoxy]-3,4-dihydrocarbostyril dihydrochloride]
Time (minutes) between introduction of anesthesia and waking [2]: 7.6 ± 4.2 min
Kb [4]: 0.589 nM
